Measured values: a melting point compilation (Tetko et al.; mined from patent text by program, amines drawn as free bases though some values may be those of a salt)
Residues, ends and D or L forms follow the SMILES beside them. *: point of attachment. Cbz = O=C(OCc1ccccc1)*; Boc = CC(C)(C)OC(=O)*; OBn = c1ccc(CO*)cc1

melting point	Compound
88 to 90 °C	CCc1nc2cc([N+](=O)[O-])ccc2o1
198 to 199 °C	Cc1ccc(Sc2cncc3sc(C(N)=O)cc23)cc1
169 to 170 °C	COC(=O)c1cccc(OC)c1OS(=O)(=O)NC(=O)Nc1nc(OC)cc(OC)n1
61 to 62 °C	CC(Cl)(Cl)C(=O)N1CCCC1C(=O)O (stereo unspecified)
133 to 135 °C	CCC1Cc2c(Br)cccc2C1O[Si](C)(C)C (stereo unspecified)
239 to 240 °C	O=C(O)c1nn(-c2ccc(Cl)cc2Cl)c2c1CCCC2
116 to 118 °C	N#Cc1c(OCC(F)(F)F)nc(C2CC2)nc1N1CCc2ccccc2CC1
193 to 195 °C	Cc1cc2c(cc1C)-n1ccnc1C=C(c1ccc(-n3c(C)nc4cnccc43)cc1)N2
120 to 122 °C	CSc1ccc2cc(O)ccc2c1
207 °C	Clc1ccc2c(Nc3ccccc3)ccnc2c1
152 °C	Cc1cc(Cn2nc(-c3ccccc3)oc2=O)cc(C(C)(C)C)c1O
185 to 186 °C	O=C(Nc1cccnn1)N1CCN(c2nc(-c3ccccc3)ns2)CC1
123 to 125 °C	CC(=O)NCCC1CCc2ccc3nn(C)cc3c21 (stereo unspecified)
> 350 °C	Cc1ccc2[nH]c(=O)n3c(=O)[nH]nc3c2c1C
32 to 34 °C	O=Cc1cc([N+](=O)[O-])ccc1OC(F)(F)F
172 to 176 °C	CCOP(=O)(CC(=O)Nc1c(C(C)C)cccc1C(C)C)NCC(c1ccccc1)c1ccccc1 (stereo unspecified)
222 to 224 °C	Cc1ccc(-c2cc(C)c(C(=O)N=C(N)N)cc2S(C)(=O)=O)cc1
229 to 231 °C	O=C(O)Cn1c(-c2ccc(Br)o2)nc2cccnc21
140 to 141 °C	CC(C)c1nn(-c2ccc(C(F)(F)F)cn2)cc1CCCOc1c(F)cccc1CC(=O)O
126 to 129 °C	CCOC(=O)COc1ccc(C(=O)Nc2cccc(Cl)c2Cl)cc1
180 to 181 °C	C[C@H]1C[C@@](O)(c2cccc(Sc3ccc4c(c3)CCC(=O)N4)c2)CCO1
173 to 175 °C	COc1cc2c(Nc3ccc(Cl)cc3F)ncnc2cc1OCCN1CCN(C)CC1
150 to 151 °C	CCCc1nc(NC)sc1-c1ccncc1
130 to 131 °C	OCc1ccc2c(c1)ncn2-c1cccc(-c2ccccc2)c1

melting point	Compound
197 °C	CNC(=O)N(OC)c1ccc(Oc2ccc3sncc3c2)c(C(F)(F)F)c1
105 to 106 °C	CC(=O)OCC(C)(Sc1cc2ccccc2[nH]1)c1ccccc1 (stereo unspecified)
193 to 194 °C	CN(CCc1c[nH]c2ccc(NC(N)=O)cc12)C(=O)C(F)(F)F
132 to 133 °C	CC(=O)n1nc(-c2ccc(Cl)cc2)nc1C
53 °C	CCOC(=O)C(C(C)C)S(=O)(=O)c1ccc(OC)cc1 (stereo unspecified)
238 to 239 °C	CCCC(=O)NCc1c(-c2ccc(C)cc2)nc2ccc3ccccc3n12
138 to 140 °C	O=C(CN1C(=O)CC1S(=O)Cc1ccccc1)NCCCCCCc1ccccc1 (stereo unspecified)
194 to 196 °C	CCOCc1nc2c(N)nc(C)c(C)c2n1CCCCS(=O)(=O)NC
103 to 104 °C	COc1ccc(F)cc1C(C)(C)CC(O)(Cc1nc2cc(-c3ccccc3)ccc2o1)C(F)(F)F (stereo unspecified)
196 °C	CCCCNC(=O)Nc1nc2cc(CN3CCN(C(c4ccccc4)c4ccccc4)CC3)ccc2n1C
69 to 71 °C	CCCc1c(OCCCC(=O)NCCCCCCc2cccnc2)ccc(C(C)=O)c1O
211 °C	CNc1ccc(Sc2nnnn2C)c2cc(-c3nccs3)[nH]c12
110 °C	COc1cccc2c1Oc1ccc(C(=O)OC(C)C)cc1NC2
247 to 248 °C	c1ccc(N(c2ccccc2)c2ccc(-c3ccc(-c4ccnc(C5Cc6ccccc6N5)n4)cc3)cc2)cc1 (stereo unspecified)
162 to 164 °C	C=CCOc1ccc(NC(=O)CC(C#N)=C(C)O)cc1
73 °C	Cc1cc2c(cc1Br)C(C)(C)CCC2(C)C
108 to 112 °C	CN1C(=O)CC[C@]2(C)c3ccc(-c4ccc(F)cc4F)cc3CC[C@@H]12
139 to 141 °C	C=CCOc1ccccc1N(CC(O)CNC(C)C)S(C)(=O)=O (stereo unspecified)
123 to 125 °C	COc1cccc(C2(Cl)C(C)(C)C2(C)C)c1OC
68 to 71 °C	CCCCc1ccc(CCCCC(COC(C)=O)(COC(C)=O)NC(C)=O)cc1
80 °C	CCOC(=O)[C@@H](Cc1cccnc1)NC(C)=O
182 to 183 °C	O=C1CCc2ccc(Oc3cccc(CN4CCN(c5cccc(Cl)c5Cl)CC4)c3)cc2N1
187 °C	CC(=O)OC/C(=C(\C(=O)O)c1ccc(F)cc1)c1ccc(S(C)(=O)=O)cc1
125 to 128 °C	CC(C)(CCC(=O)O)C(=O)Oc1cc(Cl)ccc1Oc1ccc(Cl)cc1Cl

melting point	Compound
82 °C	COC(=O)C1c2ccccc2Oc2ccccc21
169 to 171 °C	COc1cc(Nc2c(C#N)cnc3cc(C#C[Si](C)(C)C)sc23)c(Cl)cc1Cl
180 to 181 °C	CN(C)C=C(C#N)C(=O)Nc1c(F)cccc1F
222 °C	CCn1cc(C(=O)O)c(=O)c2cnc(N3CCN(CCO)CC3)nc21
85 to 88 °C	CCCCCCC#CCC#CCC#CCC#CCCCC(=O)NO
150 °C	O=[N+]([O-])c1ccc(-n2ccnc2)cc1
> 200 °C	CCOC(=O)c1nc(NCC(c2ccccc2)c2ccccc2)c2nc[nH]c2n1
> 300 °C	O=C(Nc1nnn[nH]1)c1cnc2sc3ccc(F)cc3n2c1=O
128 to 129 °C	Cc1ccnc(S(=O)(=O)c2ccccc2)c1
115 to 116 °C	COC(=O)C1=C(C)NC(C)=C(C(=O)OCCN2CC=C(c3ccccc3)CC2)C1c1cccc([N+](=O)[O-])c1 (stereo unspecified)
221 to 222 °C	COc1ccc2c(Cc3c(Cl)cncc3Cl)nn(CC(=O)O)c(=O)c2c1
61.8 to 62 °C	NS(=O)(=O)NCCc1ccccc1
208 to 211 °C	COc1c(C)c2c(c(O)c1CC1=C(C)CC(C(=O)O)C1)C(=O)OC2 (stereo unspecified)
149 to 151 °C	COc1ccccc1N1CCN(CCn2c(=O)c3sccc3n(C)c2=O)CC1
172 to 174 °C	Cc1nc(-n2ccc(OCCC3CC3)cc2=O)sc1C(=O)NCc1ccccc1
65 to 67 °C	OCC1(CN(Cc2ccccc2)Cc2ccccc2)CCN(Cc2ccccc2)C1 (stereo unspecified)
157 °C	CC(C)(C)OC(=O)C1(O/N=C(\C(=O)O)c2csc(NC(c3ccccc3)(c3ccccc3)c3ccccc3)n2)CC1
160 to 161 °C	CCCCc1cc2ccccc2c(Oc2ccc(/C=C/C(=O)O)cc2)c1-c1ccccc1
150 °C	O=[N+]([O-])c1c(NCCCO)cc(NCCCO)cc1NCCCO
94 to 96 °C	NC1=Nc2ccc(OC(F)(F)F)cc2SC1
225 to 226 °C	CC(N)(C=CCP(=O)(O)O)C(=O)O (stereo unspecified)
229 to 241 °C	Cc1csc2c(Br)cc3cc(C(=O)O)[nH]c3c12
143 to 144 °C	CCOC(=O)c1cn(CCCl)c2nc(N3CCN(C(=O)OCC)CC3)c(F)cc2c1=O
166 °C	CONC(=O)c1ccccc1NC(=O)Cc1cccc(Br)c1

melting point	Compound
62 to 64 °C	C=CCCCCCCCCCCCCCCCCCCCCO
35.5 to 36 °C	CCSC(=O)CCS(=O)CC (stereo unspecified)
145 to 146 °C	CC(C)CC1(C(CCN2C(=O)c3cccc(F)c3C2=O)C(=O)NO)CCN(CCc2ccccc2)C1=O (stereo unspecified)
184 to 187 °C	CCOC(=O)c1cc(-c2ccc(Cl)cc2)c(Cl)nc1NC=O
192 to 195 °C	COc1ccc(C(=O)c2oc3cccc(O)c3c2C)cc1
214 to 215 °C	Fc1ccc(-n2nc(-c3cccc(C(F)(F)F)c3)c3ncccc3c2=S)cc1
198 to 199 °C	CC(CO)(CO)NCc1c2ccccc2cc2cc3ccccc3cc12
212 °C	COC(=O)c1ccc(C(=O)c2ccc(NC(C)=O)cc2)cc1
91 °C	Cc1ccc(S(=O)(=O)N2[C@@H](CCc3nc(C)no3)CC[C@H]2c2ccc(F)cc2)cc1 (racemic)
128 to 129 °C	COCC(O)COc1ccc2cc(S(N)(=O)=O)sc2c1 (stereo unspecified)
163 to 167 °C	Cc1cncn1CC#CCN1CCNC1=O
85 to 88 °C	COc1ccc2[nH]c(CCN(C)C)c(CSc3ccccc3)c2c1
169 to 171 °C	CSCCC(NC(=O)OC(C)(C)C)C(=O)NC(C)C(=O)NC(C(=O)NC(CCCCNC(=O)OCc1ccccc1)C(=O)OCc1ccccc1)C(C)C (stereo unspecified) (Boc-MAVK(Cbz)-OBn; configuration not given here)
220 °C	Cc1cc(-c2cc(C(F)(F)F)n3ncc(-c4ccnc(CO)c4)c3n2)ccc1Cl
171 to 172 °C	CN1CCCCC1CCc1ccccc1NC(=O)c1ccccc1C(=O)O (stereo unspecified)
> 250 °C	CS(=O)(=O)c1ccc(N2CCc3[nH]c4c(cnc5cc(Cl)ccc54)c3C2)cc1
81 to 83 °C	C[C@@H](c1ccc(/C=C/c2ccnn2C)cc1)[C@](O)(Cn1cncn1)c1ccc(F)cc1F
216 to 217 °C	CCOc1cc(OC)ccc1C(CC(=O)Nc1cc(C(N)=O)ccc1C(C)(C)C)CC(C)C (stereo unspecified)
300 to 302 °C	CCC(=O)Nc1nc2ccc(Cl)cc2nc1N
138 to 140 °C	Cn1nnn(-c2c(Cl)ccc(C(=O)C3C(=O)CCCC3=O)c2Cl)c1=O
259 to 262 °C	Clc1ccc(-c2ccc3nncn3c2)cc1
110 to 113 °C	Cc1c(-c2cccnc2)n(CCCCCCCC(=O)O)c2ccccc12
231 to 234 °C	CC(C)OC(=O)N1CCN(c2ccc3oc(-c4ccc(S(C)(=O)=O)cc4F)nc3c2)CC1
175 °C	COc1ccc(C[C@@H]2COc3ccc(OCc4ccc5ccccc5n4)cc3[C@H]2O)cc1OC (relative stereo)

Compound	melting point
CN1CCN2c3ccccc3C(O)c3ccccc3C2C1 (stereo unspecified)	137 to 138 °C
Cc1c(Cc2cnc[nH]2)cccc1NS(C)(=O)=O	224 °C
CCN(CC)C(=O)NC1CC2c3cccc4[nH]cc(c34)CC2N(C)C1 (stereo unspecified)	171 to 173 °C
CCCCCC(C)C(C)c1cc(O)c2c3c(c(=O)oc2c1)SCCC3 (stereo unspecified)	131 to 133 °C
CCC1N=C(c2ccccc2Cl)c2cc(CCC(=O)OC)sc2-n2c(C)nnc21 (stereo unspecified)	126 to 127 °C
